Reference: the supplement of paper PMC10331698
± gives the standard deviation of the averaged measurements.

Legend:
Test in all cases: level (log10 ratio to DMSO vehicle control); higher = higher biomarker level / cell amount than vehicle control
Details in all cases: in DMSO
[1] = compound: FC(F)(F)C(F)(F)CNCC(F)(F)C(F)(F)F [Bis(1H,1H-perfluoropropyl)amine]
Description: (§1)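 BioMAP Diversity Plus panel of 12 human primary cell co-culture systems (3C, 4H, LPS, SAg, BT, BF4T, BE3C, CASM3C, HDF3CGF, KF3CT, MyoF, Mphg). Compounds were added 1 h before stimulation and left for 24 h (MyoF 48 h; BT 72 h for soluble read-outs or 6 d for IgG). Biomarkers were read by ELISA, cytotoxicity by SRB, PBMC viability and proliferation by Alamar Blue. Each well value was divided by the mean of 8 DMSO control wells on the same plate and log10 transformed; duplicate blinded samples were tested at 4 concentrations.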

[2] = compound: COC(=O)C(F)(F)C(F)(F)OC(F)(C(F)(F)F)C(F)(F)OC(F)=C(F)F [Methyl perfluoro(3-(1-ethenyloxypropan-2-yloxy)propanoate)]
Description: as §1

[3] = compound: O=S(=O)(O)CCC(F)(F)C(F)(F)C(F)(F)C(F)(F)C(F)(F)C(F)(F)F [6:2 Fluorotelomer sulfonic acid]
Description: as §1

[4] = compound: O=C(O)C=CC(F)(C(F)(F)F)C(F)(F)F [3-(Perfluoroisopropyl)-2-propenoic acid]
Description: as §1

[5] = compound: OCC(F)(F)C(F)(F)C(F)(F)CO [Hexafluoroamylene glycol]
Description: as §1

[6] = compound: O=S(=O)(O)C(F)(F)C(F)(F)C(F)(F)C(F)(F)C(F)(F)C(F)(F)C(F)(F)C(F)(F)C(F)(F)C(F)(F)F [Sodium perfluorodecanesulfonate]
Description: as §1

Test System	level (log10) ([1]; 6700 nM)	level (log10) ([1]; 20000 nM)	level (log10) ([1]; 60000 nM)	level (log10) ([2]; 6700 nM)	level (log10) ([2]; 20000 nM)	level (log10) ([3]; 6700 nM)	level (log10) ([3]; 20000 nM)	level (log10) ([3]; 60000 nM)	level (log10) ([4]; 6700 nM)	level (log10) ([4]; 20000 nM)	level (log10) ([4]; 60000 nM)	level (log10) ([5]; 6700 nM)	level (log10) ([5]; 20000 nM)	level (log10) ([5]; 60000 nM)	level (log10) ([6]; 1500 nM)	level (log10) ([6]; 4400 nM)	level (log10) ([6]; 13000 nM)	level (log10) ([6]; 40000 nM)
LPS:CD69	0.016 ± 0.028	0.0075 ± 0.053	0.03 ± 0.09	-0.0435 ± 0.0078	-0.053 ± 0.013	-0.0315 ± 0.037	-0.033 ± 0.055	-0.111 ± 0.057	-0.0365 ± 0.025	-0.0375 ± 0.00071	-0.0255 ± 0.023	-0.028 ± 0.085	-0.038 ± 0.03	-0.041 ± 0.067	-0.028 ± 0.021	-0.045 ± 0.011	-0.0585 ± 0.00071	-0.16 ± 0.054
BE3C:CXCL10/IP-10	-0.017 ± 0.035	-0.0075 ± 0.028	-0.001 ± 0.0028	-0.02 ± 0.013	-0.054 ± 0.013	0.0015 ± 0.0021	-0.0095 ± 0.0078	-0.0125 ± 0.018	0.0055 ± 0.0035	0.004 ± 0.0099	0.009 ± 0.0014	-0.009 ± 0.014	-0.0115 ± 0.011	-0.007 ± 0.02	-0.0045 ± 0.029	-0.0165 ± 0.0021	-0.076 ± 0.0042	-0.201 ± 0.013
BF4T:CXCL8/IL-8	-0.0295 ± 0.013	-0.027 ± 0.0028	-0.0105 ± 0.021	0.0395 ± 0.016	0.095 ± 0.0099	0.069 ± 0.058	0.0625 ± 0.044	0.0805 ± 0.057	0.0055 ± 0.012	-0.0015 ± 0.0064	0.001 ± 0.021	-0.018	-0.002 ± 0.0014	0.0175 ± 0.033	0.0305 ± 0.069	0.034 ± 0.0099	0.0995 ± 0.021	0.136 ± 0.0057
BE3C:IL-1alpha	0.0045 ± 0.022	0.0005 ± 0.018	0.007 ± 0.018	-0.0175 ± 0.005	-0.005 ± 0.011	-0.0095 ± 0.021	-0.005 ± 0.0099	-0.0005 ± 0.0078	-0.001 ± 0.031	-0.0065 ± 0.0064	0.0025 ± 0.005	-0.002 ± 0.0085	0.002	0.0135 ± 0.0092	-0.007 ± 0.0085	0.007 ± 0.023	-0.0495 ± 0.0078	-0.149 ± 0.0092
BT:B cell Proliferation	-0.005 ± 0.04	0.0145 ± 0.00071	0.0285 ± 0.0035	-0.009 ± 0.0099	0.01 ± 0.014	0.0405 ± 0.066	0.031 ± 0.017	0.0625 ± 0.098	0.0085 ± 0.0021	-0.011 ± 0.0014	0.012 ± 0.037	0.0165 ± 0.013	0.0285 ± 0.0064	0.0195 ± 0.043	0.0005 ± 0.021	0.0065 ± 0.0078	0.0015 ± 0.0035	0.0125 ± 0.0078
BF4T:PAI-I	-0.008 ± 0.0014	-0.005	0.006 ± 0.016	-0.016 ± 0.0085	-0.0175 ± 0.021	0.0075 ± 0.005	-0.0235 ± 0.012	-0.0265 ± 0.0078	0 ± 0.0099	0.001 ± 0.0014	0.0155 ± 0.026	-0.0025 ± 0.013	-0.002 ± 0.021	0.0065 ± 0.0064	-0.0015 ± 0.0092	0.0175 ± 0.005	0.0125 ± 0.0035	0.021 ± 0.0071
LPS:CD106/VCAM-1	-0.005 ± 0.0057	0.001 ± 0.021	0.0065 ± 0.0064	-0.066 ± 0.013	-0.0805 ± 0.0064	-0.0055 ± 0.067	-0.0005 ± 0.074	0.0115 ± 0.042	0.003 ± 0.018	-0.023 ± 0.013	-0.018 ± 0.021	-0.0215 ± 0.054	-0.03 ± 0.064	-0.0055 ± 0.059	-0.0045 ± 0.029	0.0035 ± 0.0078	-0.0265 ± 0.035	-0.076 ± 0.0028
BE3C:CD87/uPAR	-0.0335 ± 0.049	-0.0475 ± 0.06	-0.012 ± 0.018	0.038 ± 0.038	0.05 ± 0.041	0.003 ± 0.0014	-0.0065 ± 0.011	0.0235 ± 0.018	0.005 ± 0.0085	0.002 ± 0.045	0.052 ± 0.038	-0.0205 ± 0.011	-0.016 ± 0.037	0.0025 ± 0.022	0.029 ± 0.011	0.066 ± 0.02	0.005 ± 0.0014	-0.179 ± 0.011
LPS:SRB	-0.008 ± 0.0042	0.001 ± 0.016	-0.0015 ± 0.0021	-0.012	-0.0085 ± 0.0078	-0.0055 ± 0.00071	-0.0005 ± 0.0064	-0.001 ± 0.023	-0.0015 ± 0.018	-0.011 ± 0.016	-0.0115 ± 0.028	-0.004 ± 0.0028	-0.0095 ± 0.015	0.002 ± 0.018	0.0025 ± 0.0021	-0.001 ± 0.0057	-0.0105 ± 0.00071	-0.02 ± 0.017
SAg:CXCL9/MIG	-0.0045 ± 0.0021	-0.0045 ± 0.0035	0.0075 ± 0.012	-0.0145 ± 0.021	0.0055 ± 0.0035	-0.002 ± 0.018	-0.0035 ± 0.015	-0.0045 ± 0.012	-0.0105 ± 0.025	0.013	-0.006 ± 0.0085	-0.0015 ± 0.011	-0.016 ± 0.016	-0.003 ± 0.0071	0.0075 ± 0.013	-0.0085 ± 0.011	0.015 ± 0.013	-0.0255 ± 0.013
BF4T:MMP-9	-0.013 ± 0.0057	-0.013 ± 0.0042	0.0085 ± 0.036	-0.0175 ± 0.018	0.0125 ± 0.069	-0.0015 ± 0.036	-0.0095 ± 0.0078	0.018 ± 0.024	0.0015 ± 0.029	0.004 ± 0.0099	0.025 ± 0.04	-0.0045 ± 0.011	-0.0165 ± 0.0035	0.0105 ± 0.035	0.0255 ± 0.0078	-0.007 ± 0.045	-0.0285 ± 0.015	-0.058 ± 0.021
LPS:IL-1alpha	0.0065 ± 0.04	-0.017 ± 0.027	-0.0125 ± 0.011	0.0045 ± 0.022	0.0515 ± 0.011	0.007 ± 0.011	0.0225 ± 0.023	0.037 ± 0.05	0.025 ± 0.034	0.0195 ± 0.05	0.0605 ± 0.023	0.047 ± 0.035	-0.0045 ± 0.0035	0.03 ± 0.048	0.0145 ± 0.026	-0.0335 ± 0.032	-0.004 ± 0.041	-0.178 ± 0.1
LPS:CD40	0.041 ± 0.041	-0.0115 ± 0.047	-0.0155 ± 0.025	0.0235 ± 0.035	-0.0365 ± 0.022	0.025 ± 0.048	0.0165 ± 0.037	-0.015 ± 0.024	-0.008 ± 0.0085	0.008 ± 0.048	-0.017 ± 0.079	0.035 ± 0.024	0.0385 ± 0.04	0.028 ± 0.04	-0.017 ± 0.024	-0.028 ± 0.0099	-0.0525 ± 0.0078	-0.242 ± 0.026
LPS:CD62E/E-Selectin	0.0005 ± 0.032	-0.012 ± 0.0057	0.0125 ± 0.00071	-0.0165 ± 0.0035	-0.0085 ± 0.00071	0.034 ± 0.021	0.007 ± 0.014	0.027 ± 0.023	0.0055 ± 0.015	-0.013 ± 0.0042	0.0165 ± 0.0035	0.023 ± 0.024	-0.007 ± 0.023	-0.0125 ± 0.0064	-0.019 ± 0.02	-0.045 ± 0.059	-0.0425 ± 0.069	-0.084 ± 0.076
SAg:CD69	0.001 ± 0.0085	-0.0075 ± 0.018	-0.0125 ± 0.00071	-0.0375 ± 0.0092	-0.0735 ± 0.033	-0.0245 ± 0.059	-0.04 ± 0.024	-0.04 ± 0.0057	-0.0105 ± 0.0035	0.013 ± 0.0085	0.002 ± 0.0071	-0.039 ± 0.042	-0.0215 ± 0.023	-0.024 ± 0.048	0.007 ± 0.011	-0.0425 ± 0.015	-0.0215 ± 0.00071	-0.111 ± 0.0042
SAg:SRB	-0.012 ± 0.0028	-0.001 ± 0.017	0.0035 ± 0.0035	0.0035 ± 0.015	0.006 ± 0.0057	-0.012 ± 0.0057	-0.0045 ± 0.0021	-0.0045 ± 0.021	-0.001 ± 0.0042	-0.007 ± 0.025	-0.0065 ± 0.028	-0.0015 ± 0.00071	-0.004 ± 0.0028	-0.0005 ± 0.019	-0.002 ± 0.0057	-0.0015 ± 0.00071	-0.016 ± 0.0014	-0.078 ± 0.0042
